Data as given in patent publication US9469615B2, “Quinoxalines and AZA-quinoxalines as CRTH2 receptor modulators” (Merck Sharp & Dohme Corp., priority 2010, dated 2016).
pKi: −log10 of the molar value.

The compounds below were run against T1, hCRTH2 (Homo sapiens, UniProt Q9Y5Y4) (assay: Radioligand binding assay ([3H]PGD2 competition, HEK-hCRTH2 membranes)). Conditions: [3H]PGD2 binding, rated A-E (Table A).
T1 construct: expressed in transfected cells; host or cells: HEK (human embryonic kidney) cells expressing hCRTH2; membrane preparation
T1 sequence (Q9Y5Y4 1-395): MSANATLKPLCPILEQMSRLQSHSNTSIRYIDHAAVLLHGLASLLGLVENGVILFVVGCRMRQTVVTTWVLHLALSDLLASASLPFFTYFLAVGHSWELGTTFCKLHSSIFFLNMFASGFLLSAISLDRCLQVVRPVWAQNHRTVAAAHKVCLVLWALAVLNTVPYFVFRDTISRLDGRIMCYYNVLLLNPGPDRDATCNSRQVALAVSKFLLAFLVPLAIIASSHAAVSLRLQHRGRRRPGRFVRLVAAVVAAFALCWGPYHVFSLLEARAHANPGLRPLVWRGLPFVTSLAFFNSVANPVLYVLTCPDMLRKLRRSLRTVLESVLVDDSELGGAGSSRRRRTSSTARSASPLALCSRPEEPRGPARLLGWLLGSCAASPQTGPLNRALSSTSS
Method in brief: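 Competition binding with 3.0 nM [3H]PGD2 and 8-20 μg HEK-hCRTH2 membrane protein in 50 mM Tris-HCl pH 7.4, 1 mM EDTA, 2 mM MnCl2, 1% Me2SO, 60 min at room temperature. Nonspecific binding defined with 10 μM PGD2; bound radioactivity counted after filtration.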
For `O=C(O)CCCCc1nc2cc(C(=O)N[C@H]3CCc4ccccc43)ccc2nc1-c1ccc(Cl)cc1` [16AP, 3-(4-chlorophenyl)-7-[[(2,3-dihydro-1H-inden-1(S)-yl)amino]carbonyl]-2-quinoxalinepentanoic acid], the pKi was 8.70 to 10.00. For `Cc1ccc(CNC(=O)c2ccc3nc(-c4ccc(Cl)cc4)c(CCCCC(=O)O)nc3c2)cc1` [16AQ, 3-(4-chlorophenyl)-7-[[[(4-methylphenyl)methyl]amino]carbonyl]-2-quinoxalinepentanoic acid], the pKi was 8.70 to 10.00. `O=C(O)CCCCc1nc2cc(C(=O)N[C@@H](CCO)c3ccccc3)ccc2nc1-c1ccc(Cl)cc1` [16AR, 3-(4-chlorophenyl)-7-[[(3-hydroxy-1(S)-phenylpropyl)amino]carbonyl]-2-quinoxalinepentanoic acid] gave a pKi of 7.70 to 8.68. Compound `O=C(O)CCCCc1nc2cc(C(=O)NC3Cc4ccccc4C3)ccc2nc1-c1ccc(Cl)cc1` [16AS, 3-(4-ch1orophenyl)-7-[[(2,3-dihydro-1H-inden-2-yl)amino]carbonyl]-2-quinoxalinepentanoic acid] has a pKi of 8.70 to 10.00. Compound `O=C(O)CCCCc1nc2cc(C(=O)NC3CCCc4ccccc43)ccc2nc1-c1ccc(Cl)cc1` (stereo not shown) [16Ai, 3-(4-chlorophenyl)-7-[[(1,2,3,4-tetrahydro-1-naphthalenyl)amino]carbonyl]-2-quinoxalinepentanoic acid] has a pKi of 8.70 to 10.00. `O=C(O)CCCCc1nc2cc(C(=O)N[C@@H]3CCc4ccccc43)ccc2nc1-c1ccc(Cl)cc1` [16Ao, 3-(4-chlorophenyl)-7-[[(2,3-dihydro-1H-inden-1(R)-yl)amino]carbonyl]-2-quinoxalinepentanoic acid] gave a pKi of 8.70 to 10.00. Work on `O=C(O)CCCCc1nc2cc(C(=O)NCc3cccc(Cl)c3)ccc2nc1-c1ccc(Cl)cc1` [16F, 3-(4-chlorophenyl)-7-[[[(3-chlorophenyl)methyl]amino]carbonyl]-2-quinoxalinepentanoic acid] yielded a pKi of 8.70 to 10.00. `O=C(O)CCCCc1nc2cc(C(=O)NCc3ccccc3)ccc2nc1-c1ccc(Cl)cc1` [16G, 3-(4-chlorophenyl)-7-[[(phenylmethyl)amino]car-bonyl]-2-quinoxalinepentanoic acid] gave a pKi of 8.70 to 10.00. `O=C(O)CCCCc1nc2cc(C(=O)N3CCC(c4ccccc4)C3)ccc2nc1-c1ccc(Cl)cc1` (stereo not shown) [16H, 3-(4-chlorophenyl)-7-[(3-phenyl-1-pyrrolidinyl)carbonyl]-2-quinoxalinepentanoic acid] gave a pKi of 8.70 to 10.00. Compound `O=C(O)CCCCc1nc2cc(C(=O)N3CCC(c4ccccc4)CC3)ccc2nc1-c1ccc(Cl)cc1` [16J, 3-(4-chlorophenyl)-7-[(4-phenyl-1-piperidinyl)carbonyl]-2-quinoxalinepentanoic acid] has a pKi of 7.70 to 8.68. `N#Cc1ccc(CNC(=O)c2ccc3nc(-c4ccc(Cl)cc4)c(CCCCC(=O)O)nc3c2)cc1` [16K, 3-(4-chlorophenyl)-7-[[[(4-cyanophenyl)methyl]amino]carbonyl]-2-quinoxalinepentanoic acid] was tested, and the pKi was 8.70 to 10.00. Compound `O=C(O)CCCCc1nc2cc(C(=O)N3CC[C@H](c4ccccc4)C3)ccc2nc1-c1ccc(Cl)cc1` [16L, 3-(4-chlorophenyl)-7-[(3(R)-phenyl-1-pyrrolidinyl)carbonyl]-2-quinoxalinepentanoic acid] has a pKi of 7.70 to 8.68. In the case of `O=C(O)CCCCc1nc2cc(C(=O)N3CC[C@@H](c4ccccc4)C3)ccc2nc1-c1ccc(Cl)cc1` [16M, 3-(4-chlorophenyl)-7-[(3(S)-phenyl-1-pyrrolidinyl)carbonyl]-2-quinoxalinepentanoic acid], the pKi was 8.70 to 10.00. For `O=C(O)CCCCc1nc2cc(C(=O)N3CCC[C@H](c4ccccc4)C3)ccc2nc1-c1ccc(Cl)cc1` [16N, 3-(4-chlorophenyl)-7-[(3(R)-phenyl-1-piperidinyl)carbonyl]-2-quinoxalinepentanoic acid], the pKi was 8.70 to 10.00. In the case of `O=C(O)CCCCc1nc2cc(C(=O)NCc3ccc(OC(F)(F)F)cc3)ccc2nc1-c1ccc(Cl)cc1` [16P, 3-(4-chlorophenyl)-7-[[[[4-(trifluoromethoxy)phenyl]methyl]amino]carbonyl]-2-quinoxalinepentanoic acid], the pKi was 8.70 to 10.00. In the case of `O=C(O)CCCCc1nc2cc(C(=O)NCc3cc(Cl)cc(Cl)c3)ccc2nc1-c1ccc(Cl)cc1` [16Q, 3-(4-chlorophenyl)-7-[[[(3,5-dichlorophenyl)methyl]amino]carbonyl]-2-quinoxalinepentanoic acid], the pKi was 8.70 to 10.00. `O=C(O)CCCCc1nc2cc(C(=O)NCc3ccc(F)cc3)ccc2nc1-c1ccc(Cl)cc1` [16R, 3-(4-chlorophenyl)-7-[[[(4-fluorophenyl)methyl]amino]carbonyl]-2-quinoxalinepentanoic acid] was tested, and the pKi was 8.70 to 10.00. `C[C@@H](NC(=O)c1ccc2nc(-c3ccc(Cl)cc3)c(CCCCC(=O)O)nc2c1)c1ccc(F)cc1` [16S, 3-(4-chlorophenyl)-7-[[[1(R)-(4-fluorophenyl)ethyl]amino]carbonyl]-2-quinoxalinepentanoic acid] showed a pKi of 8.70 to 10.00. For `C[C@H](NC(=O)c1ccc2nc(-c3ccc(Cl)cc3)c(CCCCC(=O)O)nc2c1)c1ccc(F)cc1` [16T, 3-(4-chlorophenyl)-7-[[[1(S)-(4-fluorophenyl)ethyl]amino]carbonyl]-2-quinoxalinepentanoic acid], the pKi was 8.70 to 10.00. Work on `O=C(O)CCCCc1nc2cc(C(=O)NCc3ccc(C(F)(F)F)cc3)ccc2nc1-c1ccc(Cl)cc1` [16U, 3-(4-chlorophenyl)-7-[[[[4-(trifluoromethyl)phenyl]methyl]amino]carbonyl]-2-quinoxalinepentanoic acid] yielded a pKi of 8.70 to 10.00. For `O=C(O)CCCCc1nc2cc(C(=O)N[C@H](c3ccc(Cl)cc3)C(F)(F)F)ccc2nc1-c1ccc(Cl)cc1` [16V, 3-(4-chlorophenyl)-7-[[[1(R)-(4-chlorophenyl)-2,2,2-trifluoroethyl]amino]carbonyl]-2-quinoxalinepentanoic acid], the pKi was 8.70 to 10.00. Compound `O=C(O)CCCCc1nc2cc(C(=O)N[C@@H](c3ccc(Cl)cc3)C(F)(F)F)ccc2nc1-c1ccc(Cl)cc1` [16W] has a pKi of 8.70 to 10.00. Work on `O=C(O)CCCCc1nc2cc(C(=O)N[C@@H](c3ccc(F)cc3)C(F)(F)F)ccc2nc1-c1ccc(Cl)cc1` [16Y, 3-(4-chlorophenyl)-7-[[[2,2,2-trifluoro-1(S)-(4-fluorophenyl)ethyl]amino]carbonyl]-2-quinoxalinepentanoic acid] yielded a pKi of 8.70 to 10.00. `C[C@H](NC(=O)c1ccc2nc(-c3ccc(Cl)cc3)c(CCCCC(=O)O)nc2c1)c1ccccn1` [16Z, 3-(4-chlorophenyl)-7-[[[1(S)-(2-pyridinyl)ethyl]amino]carbonyl]-2-quinoxalinepentanoic acid] showed a pKi of 7.70 to 8.68. For `O=C(O)CCCCc1nc2cc(C(=O)N[C@@H](c3ccccc3)C(F)(F)F)ccc2nc1-c1ccc(Cl)cc1` [16i, 3-(4-chlorophenyl)-7-[[(2,2,2-trifluoro-1(s)-phenylethyl)amino]carbonyl]-2-quinoxalinepentanoic acid], the pKi was 8.70 to 10.00. With `O=C(O)CCCCc1nc2cc(C(=O)N3CCC[C@@H](c4ccccc4)C3)ccc2nc1-c1ccc(Cl)cc1` [16o, 3-(4-chlorophenyl)-7-[(3(S)-phenyl-1-piperidinyl)carbonyl]-2-quinoxalinepentanoic acid] the pKi was 8.70 to 10.00. `CC(CCc1nc2cc(C(=O)N[C@@H](C)c3ccc(Cl)cc3)ccc2nc1-c1ccc(Cl)cc1)CC(=O)O` (stereo partly shown) [17D] gave a pKi of 8.70 to 10.00.

Same assay, conditions: [3H]PGD2 binding, values in text
Work on `O=C(O)CCCCc1nc2cc(C(=O)N[C@@H]3CCc4ccccc43)ccc2nc1-c1ccc(Cl)cc1` [16Ao, 3-(4-chlorophenyl)-7-[[(2,3-dihydro-1H-inden-1(R)-yl)amino]carbonyl]-2-quinoxalinepentanoic acid] yielded a pKi of 9.40. With `C[C@@H](NC(=O)c1ccc2nc(-c3ccc(Cl)cc3)c(CCCCC(=O)O)nc2c1)c1ccc(F)cc1` [16S, 3-(4-chlorophenyl)-7-[[[1(R)-(4-fluorophenyl)ethyl]amino]carbonyl]-2-quinoxalinepentanoic acid] the pKi was 9.15. In the case of `O=C(O)CCCCc1nc2cc(C(=O)N[C@H](c3ccc(Cl)cc3)C(F)(F)F)ccc2nc1-c1ccc(Cl)cc1` [16V, 3-(4-chlorophenyl)-7-[[[1(R)-(4-chlorophenyl)-2,2,2-trifluoroethyl]amino]carbonyl]-2-quinoxalinepentanoic acid], the pKi was 8.57. Compound `O=C(O)CCCCc1nc2cc(C(=O)N[C@@H](c3ccc(Cl)cc3)C(F)(F)F)ccc2nc1-c1ccc(Cl)cc1` [16W] has a pKi of 9.40.
